Columns and labels:
[1] = 101.33 kPa, Liquid, Vibrating tube method
[2] = refractive index (Na D-line) (dimensionless); settings: 101.33 kPa, Liquid, Standard Abbe refractometry
[3] = mn = molality of the nth substance listed, in mol/kg; settings: 101 kPa, Liquid, Vibrating tube method

CCn1cc[n+](C)c1.COS(=O)(=O)[O-] [1-ethyl-3-methylimidazolium methylsulfate]
Settings | mass density, 298.15 K [kg/m3] | mass density, 308.15 K [kg/m3] | mass density, 318.15 K [kg/m3] | mass density, 328.15 K [kg/m3] | refractive index, 298.15 K | refractive index, 308.15 K | refractive index, 318.15 K | refractive index, 328.15 K
[1] | 1361.2 | 1333.2 | 1319.2 | 1300.3 | – | – | – | –
[2] | – | – | – | – | 1.4822 | 1.4782 | 1.4759 | 1.4704

CCn1cc[n+](C)c1.COS(=O)(=O)[O-] [1-ethyl-3-methylimidazolium methylsulfate] + O
mass density [kg/m3], [3]
Settings | 298.15 K | 308.15 K | 318.15 K | 328.15 K
m1 = 0.0166 | 998.28 | 995.1 | 991.05 | 985.78
m1 = 0.0244 | 998.78 | 995.59 | 991.42 | 986.12
m1 = 0.0302 | 999.18 | 995.94 | 991.68 | 986.36
m1 = 0.0372 | 999.58 | 996.31 | 992 | 986.62
m1 = 0.0702 | 1001.29 | 997.81 | 993.46 | 987.97
m1 = 0.077 | 1001.59 | 998.05 | 993.68 | 988.23
m1 = 0.0961 | 1002.25 | 998.74 | 994.43 | 988.9
m1 = 0.1191 | 1003.09 | 999.51 | 995.31 | 989.75
m1 = 0.1346 | 1003.69 | 999.99 | 995.93 | 990.36
m1 = 0.1823 | 1005.3 | 1002.08 | 997.93 | 992.14
m1 = 0.3343 | 1011.4 | 1008.04 | 1003.88 | 997.71
m1 = 0.4226 | 1014.99 | 1011.67 | 1007.18 | 1000.86
m1 = 0.5486 | 1020.29 | 1017.02 | 1011.85 | 1005.32
m1 = 0.573 | 998.28 | 1018.1 | 1012.71 | 1006.1

CCCCCCn1cc[n+](C)c1.CCOS(=O)(=O)[O-] [1-hexyl-3-methylimidazolium ethyl sulfate]
Settings | mass density, 298.15 K [kg/m3] | mass density, 308.15 K [kg/m3] | mass density, 318.15 K [kg/m3] | mass density, 328.15 K [kg/m3] | refractive index, 298.15 K | refractive index, 308.15 K | refractive index, 318.15 K | refractive index, 328.15 K
[1] | 1137.54 | 1130.74 | 1124.29 | 1117.81 | – | – | – | –
[2] | – | – | – | – | 1.4677 | 1.4636 | 1.4596 | 1.4566

CCCCCCn1cc[n+](C)c1.CCOS(=O)(=O)[O-] [1-hexyl-3-methylimidazolium ethyl sulfate] + O
mass density [kg/m3], [3]
Settings | 298.15 K | 308.15 K | 318.15 K | 328.15 K
m1 = 0.0113 | 997.55 | 994.52 | 990.63 | 985.41
m1 = 0.0347 | 998.58 | 995.5 | 991.48 | 986.2
m1 = 0.0419 | 998.9 | 995.8 | 991.73 | 986.44
m1 = 0.0614 | 999.73 | 996.6 | 992.41 | 987.07
m1 = 0.0677 | 1000 | 996.84 | 992.62 | 987.28
m1 = 0.1085 | 1001.65 | 998.38 | 994 | 988.57
m1 = 0.2177 | 1005.67 | 1002.07 | 997.31 | 991.8
m1 = 0.3501 | 1010 | 1005.78 | 1000.86 | 995.29
m1 = 0.433 | 1012.3 | 1007.9 | 1002.92 | 997.21
m1 = 0.5618 | 1015.56 | 1010.89 | 1005.91 | 1000.07
m1 = 0.7474 | 1019.59 | 1014.5 | 1009.79 | 1003.7
m1 = 0.8741 | 1021.74 | 1016.59 | 1012.03 | 1005.94
m1 = 1.17 | 1025.65 | 1020.79 | 1016.28 | 1010.91
m1 = 1.343 | 1027.8 | 1023.36 | 1018.31 | 1013.65

CCCCCCn1cc[n+](C)c1.COS(=O)(=O)[O-] [1-hexyl-3-methylimidazolium methyl sulfate]
Settings | mass density, 298.15 K [kg/m3] | mass density, 308.15 K [kg/m3] | mass density, 318.15 K [kg/m3] | mass density, 328.15 K [kg/m3] | refractive index, 298.15 K | refractive index, 308.15 K | refractive index, 318.15 K | refractive index, 328.15 K
[1] | 1156.93 | 1150.32 | 1143.84 | 1137.38 | – | – | – | –
[2] | – | – | – | – | 1.4733 | 1.4708 | 1.4683 | 1.4654

CCCCCCn1cc[n+](C)c1.COS(=O)(=O)[O-] [1-hexyl-3-methylimidazolium methyl sulfate] + O
mass density [kg/m3], [3]
Settings | 298.15 K | 308.15 K | 318.15 K | 328.15 K
m1 = 0.0118 | 997.55 | 994.47 | 990.58 | 985.32
m1 = 0.0314 | 998.37 | 995.17 | 991.17 | 985.78
m1 = 0.0497 | 999.1 | 995.8 | 991.69 | 986.21
m1 = 0.076 | 1000.09 | 996.65 | 992.4 | 986.8
m1 = 0.0937 | 1000.68 | 997.19 | 992.86 | 987.21
m1 = 0.154 | 1002.59 | 998.9 | 994.35 | 988.41
m1 = 0.3076 | 1006.3 | 1002.6 | 997.53 | 990.95
m1 = 0.5023 | 1010.81 | 1006.62 | 1001.55 | 994.25
m1 = 0.6255 | 1013.9 | 1009.13 | 1003.9 | 996.3
m1 = 0.7024 | 1015.42 | 1010.54 | 1005.28 | 997.49
m1 = 0.8838 | 1020.02 | 1014 | 1008.57 | 1000.18
m1 = 1.071 | 1024.02 | 1017.44 | 1012.23 | 1002.98
m1 = 1.284 | 1028.91 | 1021.24 | 1015.5 | 1005.89
m1 = 1.544 | 1034.22 | 1026.15 | 1020.01 | 1009
